Test results as given in patent US20240108601A1, “TREATMENT OF MENTAL DISORDERS” (GH Research Ireland Limited, priority 2022, published 2024).
Several values for one entry are separate records, joined by “and”; a condition that tells them apart may be missing. Equal values may be shown once.

How the values were obtained:
[1] = tested on: Escherichia coli WP2 uvrA pKM101; experiment: Bacterial reverse mutation test; format: cell-based; settings: up to 5000 μg/plate; with and without S-9
Description: (§1) These conditions included treatments at concentrations up to 5000 μg/plate (the maximum recommended concentration according to current regulatory guidelines), in the absence and in the presence of a rat liver metabolic activation system (S-9).

[2] = tested on: Salmonella typhimurium TA98, TA100, TA1535 and TA1537; experiment: Bacterial reverse mutation test; format: cell-based; settings: up to 5000 μg/plate; with and without S-9
Description: as §1

[3] = tested on: patients with postpartum depression (PPD); experiment: Clinical trial of inhaled 5-MeO-DMT in postpartum depression; format: in vivo, human; settings: for BIMF domain Adjustment score / BIMF domain Infant Care score: max 12; for BIMF domain Infant Care score: Day 0 12; for BIMF domain Management score: max 36; for BIMF domain Psychological Well-being score: max 60; for BIMF TOTAL score: possible total 120; for Time to clinical remission after administration: IDR 6 mg then 12 mg
Source text: The patient completed all planned visit days.

[4] = LC-MS/MS of 5-MeO-DMT, bufotenine and 5-MIAA in urine, serum and breastmilk of lactating PPD patient; infant exposure estimates; settings: for Breastmilk concentration / Serum concentration / Urine concentration: second patient
Source text: When determining the potential impact of maternal drug administration on a breastfed infant, it is standard practice to calculate the Relative Infant Dose (RID) (Bennett, P. N., and L. J. Notarianni. “Risk from drugs in breast milk: an analysis by relative dose.” Br J Clin Pharmacol 42.5 (1996): P673-4). The RID is the dosage (in μg/kg/day) the infant is exposed to by the intake of breast milk, divided by the dosage (in μg/kg/day) the mother receives.
Using estimates for daily intake of breast milk and the number of feeds as well as the measured breast milk concentrations the exposure of the infant can be determined.
For example, a published estimate for daily intake of breast milk as a function of infant weight is 150 ml/kg/day. To model the exposure, it is assumed that an infant of 5 kg is fed three times over 24 hours, receiving 250 ml breast milk each time.
The second patient was lactating, and, per the clinical trial protocol, breastmilk samples were collected pre-dosing and at multiple timepoints after administration of the last dose. […] Similar analyses were carried out on patient serum and urine samples.

[5] = second patient, Day 7 (visit on day 5)
[6] = female, human, breast milk, inhaled

COc1ccc2[nH]cc(CCN(C)C)c2c1 [5-MeO-DMT]
Mutation induction [1]: did not induce mutation | Mutation induction [2]: did not induce mutation | BIMF TOTAL Δ (Day 7) ([3]; first patient): 13 | BIMF domain Adjustment Δ (Day 7) ([3]; first patient): 1 | BIMF domain Infant Care Δ (Day 7) ([3]; first patient): 0 | BIMF domain Management Δ (Day 7) ([3]; first patient): 5 | BIMF domain Mother-Child Interaction Δ (Day 7) ([3]; first patient): 2 | BIMF domain Psychological Well-being Δ (Day 7) ([3]; first patient): 9 | BIMF domain Self-Care Δ (Day 7) ([3]; first patient): 4 | BIMF domain Social Support Δ (Day 7) ([3]; first patient): 1 | PES score ([3]; first patient, 12 mg): 85.7 | Total MADRS improvement ([3]; first patient, 2 hr): 24 | Total MADRS score ([3]; first patient, 2 hr, baseline 29): 5 | BPRS item score ([3]; first patient, Day 1): 1 | MADRS item score ([3]; first patient, Day 1): 0 | Total MADRS improvement ([3]; first patient, Day 1): 29 | Total MADRS score ([3]; first patient, Day 1, baseline 29): 0 | BIMF domain Adjustment % improvement ([3]; first patient, Day 7): 20.00% | BIMF domain Infant Care % improvement ([3]; first patient, Day 7): 0.00% | BIMF domain Management % improvement ([3]; first patient, Day 7): 18% and 17.86% | BIMF domain Mother-Child Interaction % improvement ([3]; first patient, Day 7): 13.33% | BIMF domain Psychological Well-being % improvement ([3]; first patient, Day 7): 20.45% | BIMF domain Self-Care % improvement ([3]; first patient, Day 7): 44% and 44.44% | BIMF domain Social Support % improvement ([3]; first patient, Day 7): 5.88% | BIMF total score improvement ([3]; first patient, Day 7): 14% | BPRS item score ([3]; first patient, Day 7): 1 | Total MADRS improvement ([3]; first patient, Day 7): 28 | BIMF domain Adjustment score ([3]; first patient, Day 7, Day 0 5): 6 | BIMF domain Self-Care score ([3]; first patient, Day 7, Day 0 9, max 18): 13 | BIMF domain Infant Care score ([3]; first patient, Day 7): 12 | BIMF domain Mother-Child Interaction score ([3]; first patient, Day 7, Day 0 15, max 18): 17 | BIMF domain Social Support score ([3]; first patient, Day 7, Day 0 17, max 18): 18 | BIMF domain Management score ([3]; first patient, Day 7, Day 0 28): 33 | BIMF domain Psychological Well-being score ([3]; first patient, Day 7, Day 0 44): 53 | BIMF TOTAL score ([3]; first patient, Day 7, Day 0 92): 105 | Total MADRS score ([3]; first patient, Day 7, baseline 29): 1 | BPRS item score ([3]; first patient, Discharge): 1 | Time to clinical remission after administration ([3]; first patient): ≤ 2 h | Reported adverse events ([3]; first patient, cramping left abdominal pain and headache, Day 0): mild, short-lasting and resolved spontaneously | PES score ([3]; first patient, nominal dose 6 mg): 17.3 | BIMF TOTAL Δ (Day 7) ([3]; second patient): 45 | BIMF domain Adjustment Δ (Day 7) ([3]; second patient): 9 | BIMF domain Infant Care Δ (Day 7) ([3]; second patient): 0 | BIMF domain Management Δ (Day 7) ([3]; second patient): 13 | BIMF domain Mother-Child Interaction Δ (Day 7) ([3]; second patient): 7 | BIMF domain Psychological Well-being Δ (Day 7) ([3]; second patient): 27 | BIMF domain Self Care Δ (Day 7) ([3]; second patient): 10 | BIMF domain Social Support Δ (Day 7) ([3]; second patient): 3 | PES score ([3]; second patient, 12 mg): 94.7 | Total MADRS score ([3]; second patient, 2 hr, baseline 41): 5 | Total MADRS improvement ([3]; second patient, 2 hrs): 36 | BPRS item score ([3]; second patient, Day 1): 1 | MADRS item score ([3]; second patient, Day 1): 0 | Total MADRS improvement ([3]; second patient, Day 1): 41 | Total MADRS score ([3]; second patient, Day 1, baseline 41): 0 | BIMF domain Adjustment % improvement ([3]; second patient, Day 7): 450% | BIMF domain Infant Care % improvement ([3]; second patient, Day 7): 0% | BIMF domain Management % improvement ([3]; second patient, Day 7): 76% | BIMF domain Mother-Child Interaction % improvement ([3]; second patient, Day 7): 70% | BIMF domain Psychological Well-being % improvement ([3]; second patient, Day 7): 113% | BIMF domain Self Care % improvement ([3]; second patient, Day 7): 333% | BIMF item score ([3]; second patient, Day 7): 6 and 5 and 4 | BIMF total score improvement ([3]; second patient, Day 7): over 40% | BPRS item score [3, 5]: 1 | MADRS item score [3, 5]: 0 | Total MADRS improvement [3, 5]: 41 | Total MADRS score ([3]; second patient, Day 7 (visit on day 5), baseline 41): 0 | BIMF domain Adjustment score ([3]; second patient, Day 7, Day 0 2): 11 | BIMF domain Self Care score ([3]; second patient, Day 7, Day 0 3, max 18): 13 | BIMF domain Mother-Child Interaction score ([3]; second patient, Day 7, Day 0 10, max 18): 17 | BIMF domain Social Support score ([3]; second patient, Day 7, Day 0 11, max 18): 14 | BIMF domain Infant Care score ([3]; second patient, Day 7): 12 | BIMF domain Management score ([3]; second patient, Day 7, Day 0 17): 30 | BIMF domain Psychological Well-being score ([3]; second patient, Day 7, Day 0 24): 51 | BIMF TOTAL score ([3]; second patient, Day 7, Day 0 59 (table)): 104 | BPRS item score ([3]; second patient, Discharge): 1 | Time to clinical remission after administration ([3]; second patient): ≤ 2 h | PES score ([3]; second patient, nominal dose 6 mg): 1 | Reported adverse events ([3]; second patient, vomiting Day 0, headache Day 5): mild, short-lasting and resolved spontaneously | Daily Infant Dosage (DID) per kg ([4]; 5 kg infant, three feeds of 250 ml): 0.0001385 mg/kg/day | concentration at 1 h [4, 6]: 2.17 ng/mL | concentration at 2.5 h [4, 6]: 0.561 ng/mL | concentration at 8.5 h [4, 6]: 0.0421 ng/mL | concentration at 1 h ([4]; female, human, serum, inhaled): 0.133 ng/mL | Breastmilk concentration ([4]; 1.0 hrs after last dose): 2167 pg/mL | Serum concentration ([4]; 2.5 hrs after last dose): BLQ (Below limit of quantification. The lower limit of quantification is 25 pg/ml for both 5-MeO-DMT and 5-MIAA in both serum and breastmilk; it is 25 pg/ml in urine for 5-MeO-DMT and 250 pg/ml for 5-MIAA in urine.) | Urine concentration ([4]; 8.5 hrs after last dose): BLQ (Below limit of quantification. The lower limit of quantification is 25 pg/ml for both 5-MeO-DMT and 5-MIAA in both serum and breastmilk; it is 25 pg/ml in urine for 5-MeO-DMT and 250 pg/ml for 5-MIAA in urine.) | Breastmilk concentration ([4]; 24.0 hrs after last dose): did not detect and BLG | Serum concentration ([4]; 24.0 hrs after last dose): BLQ (Below limit of quantification. The lower limit of quantification is 25 pg/ml for both 5-MeO-DMT and 5-MIAA in both serum and breastmilk; it is 25 pg/ml in urine for 5-MeO-DMT and 250 pg/ml for 5-MIAA in urine.) | Urine concentration ([4]; 24.0 hrs after last dose): BLQ (Below limit of quantification. The lower limit of quantification is 25 pg/ml for both 5-MeO-DMT and 5-MIAA in both serum and breastmilk; it is 25 pg/ml in urine for 5-MeO-DMT and 250 pg/ml for 5-MIAA in urine.) | Breastmilk concentration ([4]; 120.0 hrs after last dose): BLQ (Below limit of quantification. The lower limit of quantification is 25 pg/ml for both 5-MeO-DMT and 5-MIAA in both serum and breastmilk; it is 25 pg/ml in urine for 5-MeO-DMT and 250 pg/ml for 5-MIAA in urine.) | Serum concentration ([4]; 120.0 hrs after last dose): BLQ (Below limit of quantification. The lower limit of quantification is 25 pg/ml for both 5-MeO-DMT and 5-MIAA in both serum and breastmilk; it is 25 pg/ml in urine for 5-MeO-DMT and 250 pg/ml for 5-MIAA in urine.) | Urine concentration ([4]; 120.0 hrs after last dose): BLQ (Below limit of quantification. The lower limit of quantification is 25 pg/ml for both 5-MeO-DMT and 5-MIAA in both serum and breastmilk; it is 25 pg/ml in urine for 5-MeO-DMT and 250 pg/ml for 5-MIAA in urine.) | Breastmilk concentration ([4]; −24.0 hrs (pre-dosing)): BLQ (Below limit of quantification. The lower limit of quantification is 25 pg/ml for both 5-MeO-DMT and 5-MIAA in both serum and breastmilk; it is 25 pg/ml in urine for 5-MeO-DMT and 250 pg/ml for 5-MIAA in urine.) | Serum concentration ([4]; −24.0 hrs (pre-dosing)): BLQ (Below limit of quantification. The lower limit of quantification is 25 pg/ml for both 5-MeO-DMT and 5-MIAA in both serum and breastmilk; it is 25 pg/ml in urine for 5-MeO-DMT and 250 pg/ml for 5-MIAA in urine.) | Urine concentration ([4]; −24.0 hrs (pre-dosing)): BLQ (Below limit of quantification. The lower limit of quantification is 25 pg/ml for both 5-MeO-DMT and 5-MIAA in both serum and breastmilk; it is 25 pg/ml in urine for 5-MeO-DMT and 250 pg/ml for 5-MIAA in urine.)
